Data taken from PubChem BioAssay (NCI).
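In this assay, cells in 96-well plates receive the compound at five concentrations for 48 hours. Endpoints are linearly interpolated between the surrounding concentrations. GI50 is the concentration that inhibits growth by half. TGI: total growth inhibition.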

Experiments:
Assay in all cases: NCI tumour cell line growth inhibition, 48 h
HS 578T breast = tested on: HS 578T breast
HCT-15 colon = tested on: HCT-15 colon
SF-268 CNS = tested on: SF-268 CNS
U251 CNS = tested on: U251 CNS
SR leukemia = tested on: SR leukemia
M14 melanoma = tested on: M14 melanoma
SNB-75 CNS = tested on: SNB-75 CNS
HOP-62 NSCLC = tested on: HOP-62 NSCLC
RXF 393 renal = tested on: RXF 393 renal
UACC-62 melanoma = tested on: UACC-62 melanoma

Row | Compound | GI50 (HS 578T breast) [µM] | TGI (HS 578T breast) [µM] | GI50 (HCT-15 colon) [µM] | TGI (HCT-15 colon) [µM] | GI50 (SF-268 CNS) [µM] | TGI (SF-268 CNS) [µM] | GI50 (U251 CNS) [µM] | TGI (U251 CNS) [µM] | GI50 (SR leukemia) [µM] | TGI (SR leukemia) [µM] | GI50 (M14 melanoma) [µM] | TGI (M14 melanoma) [µM] | GI50 (SNB-75 CNS) [µM] | TGI (SNB-75 CNS) [µM] | GI50 (HOP-62 NSCLC) [µM] | TGI (HOP-62 NSCLC) [µM] | GI50 (RXF 393 renal) [µM] | TGI (RXF 393 renal) [µM] | GI50 (UACC-62 melanoma) [µM] | TGI (UACC-62 melanoma) [µM]
1 | N=C(N)c1ccc(-c2ccc(-c3ccco3)o2)cc1F | 1.53 | 4.7 | 2.02 | 4.81 | 2.9 | 10.4 | 1.72 | 3.55 | 1.97 | 5.4 | 1.88 | 3.76 | 1.66 | 7.23 | 2.96 | 10.4 | 1.62 | 3.69 |  | 
2 | COc1ccc(/C=C/C(=O)c2ccc(NC(=O)CSc3nnc(-c4cc(OC)c(OC)c(OC)c4)o3)cc2)cc1 | 2.65 | 7.76 | 1.63 | 3.22 | 1.79 | 3.96 | 1.68 | 3.18 | 1.86 | 4.01 | 1.6 | 3.3 | 1.47 | 3.15 | 2.13 | 4.53 | 1.74 | 3.54 | 1.73 | 3.43
3 | COc1ccc2c(c1)N(CCO)C1=C(C(=O)OC1)C2c1cccc(Br)c1 (stereo not drawn) | 0.209 | > 100 | 0.0659 | > 100 | 0.0864 | 21.3 | 0.0534 | 15.9 | 0.0826 | 55.7 | 0.0612 | 0.597 | 0.0647 | > 100 | 0.132 | > 76.3 | 0.0482 | 71 | 0.048 | 44.5
4 | OCCCNC(=S)Nc1ccc(-c2nc3ccccc3s2)cc1 | 33 | > 100 | 16.7 | 39.8 | 22.5 | > 100 | 29.8 | > 100 | 14.6 | 50 | 23.3 | 49 | 18.8 | 78.8 | 31.8 | > 100 | 10.4 | 52.4 | 18.6 | 41
5 | O=C(Nc1ncc(Cc2ccc(Cl)cc2)s1)c1ccc2c(c1)OCCO2 | 0.0422 | 8.65 | 0.0477 | > 100 | 0.786 | > 100 | 0.0549 | > 45.3 | 0.0528 | > 100 | 0.0409 | 75.3 | 0.0266 | 3.4 | 0.0948 | > 41.6 | 0.0326 | 0.567 | 0.0543 | > 100
6 | CC(=O)O[C@@H]1CC(=O)O[C@@H]2C[C@@H](CC/C(Cl)=C/C/C=C\1C)O[C@@H]2CO | > 25 | > 25 | > 25 | > 25 | > 25 | > 25 | > 25 | > 25 | > 25 | > 25 | > 25 | > 25 | > 25 | > 25 | > 25 | > 25 | > 25 | > 25 | > 25 | > 25
